Data reported in US4554274A, “Nb Quaternary derivatives of ajmaline and isoajmaline, methods and intermediate products in the manufacture of their derivatives and method of using same and pharmaceutical compositions thereof” (priority 1979, dated 1985).
Structures can show the parent of a compound that is named as a salt. Where two headings read alike, the source gives them in different places.

What was measured:
[1] = test system: male Wista rats (aconitine); assay: aconitine infusion in rats, heart rhythm disruption (Raschak); assay type: in vivo; conditions: 1/20th of the LD50, concurrent aconitine infusion, time difference vs control
Experimental: To determine the influence of the active ingredient on male Wista rats (weighing 280 to 350 g), infusion with aconitine according to the method of Raschak is carried out (M. Raschak, Arzneim. Forschung (Drug Research) 25 (4) (1975) pp. 639-641). The results are given as the difference (that is, the difference in time as Δ%) between the active substance and a control sample in bringing about a disruption of heart rhythms (extrasystolic (ES), ventricular tachicardiea (VT), chamber flutter (KF)). In the control sample the active ingredient is replaced by a vehicle such as isotonic NaCl-solution or solution medium. The administration of the active ingredient is in a dosage of 1/20th of the LD50 and a constant concurrent infusion per unit of time of aconitine.

[2] = acute toxicity (LD50) in mice; assay type: in vivo; conditions: mouse, in vivo, male NMRI-mice, mortality on 7th day
Experimental: (§1) The acute toxicity of the compounds is determined in male NMRI-mice (body weight range 18-22 g) after oral (p.o.) and intraperitonal (i.p.) administration. The LD50 is defined as that dose in μmol/kg which causes a 50% mortality rate of the test animals on the 7th day after application. The calculation of the LD50 is carried out by probitanalysis (see L. Cavalli-Sforza, Grundbegriffe der Biometric, Gustav Fischer Verlag Stuttgart (1964)).

[3] = test system: isolated left atria; assay: functional refractory period (FRP) and contraction force (CF) in isolated left atria, double stimulus method of Govier; set-up: species or system female guinea pigs; conditions: for ratio between contraction force-reducing dose and functional refractory period-prolonging dose: CF/FRP, indication of therapeutic range, 18 min; for EC (FRP prolonged to 125%) / IC25: Cavia porcellus, 0.3 h, isolated left atria of guinea pig, 18 minutes after application; for EC (FRP prolonged to 125%): read-out: concentration prolonging functional refractory period (FRP) to 125% of starting value; for IC25: read-out: concentration reducing contraction force (CF) to 75% of starting value
Experimental: The prolongation of the functional refractory period (FRP) and the contraction force (CF) in the isolated left atria of female guinea pigs (albinopirbright-white guinea pigs, body weight range 300-400 g) are determined according to the double stimulus method of Govier (see W. C. Govier, J. Pharmakol, Exp. Ther. 148 (1965) pp. 100-105). The concentrations which are given in the table below are the concentrations in […] which 18 minutes after application leads to a prolongation of the functional refractory period to 125% or respectively to a reduction of the contraction force to 75% of the starting value. Furthermore the ratio between contraction force-reducing dose and functional refractory period-prolonging dose is given. This ratio is an indication of the therapeutic range of the antiarrhythmic effect on the isolated organ (see K. Greef, Verh. Dtsch. Ges. Kreislaufforsch. 35 (1969) pp. 88-97).

[4] = test system: male NMRI-mice; assay: minimum symptom dose (Campbell and Richter); assay type: in vivo; set-up: key: (*): symptoms already indicating toxic area; conditions: i.p., changes in behavior in 2 out of 3 mice
Experimental: The minimum symptom dose is determined in male NMRI-mice (body weight range 18-22 g) according to the procedure of Campbell and Richter (see D. E. S. Campbell and W. Richter, Acta Pharmacol. Toxicol. 25 (1967), pp. 345-363). The minimum symptom dose is defined as that dose in μmol/kg which after i.p. administration causes changes in behavior in 2 out of 3 mice. The minimum symptom dose is a measure for evaluations undesirable side effects.

[5] = test system: male NMRI-mice; assay: acute toxicity (LD50) in mice; assay type: in vivo; conditions: i.p., mortality on 7th day
Experimental: as §1

Structure (SMILES) | Aconitin-Rat, ES (extrasystolic), Δ % [1] | Aconitin-Rat, KF (chamber flutter), Δ % [1] | Aconitin-Rat, VT (ventricular tachycardia), Δ % [1] | LD50 at 168 h ([2]; ip, i.p., read-out: LD50 i.p.) [µmol/kg] | LD50 at 168 h ([2]; po, p.o., read-out: LD50 p.o.) [µmol/kg] | ratio between contraction force-reducing dose and functional refractory period-prolonging dose [3] | EC (FRP prolonged to 125%) [3] [µM] | IC25 [3] [µM] | Min. Symptom-dose [4] | LD50 i.p. [5] [µmol/kg]
CCC1C2CC3C4N(C)c5ccc(Br)cc5C45CC(C2C5O)[N+]3(CCCN(CC)CC)C1O (stereo not drawn) [Example 19.b, Nb-diethylaminopropyl-10-bromoisoajmalinium bishydrogen tartrate] | +220% | +158% | +180% | 122 | 686 | 0.5 | 4.4 | 2 | 31 µmol/kg | –
CCC1C2CC3C4N(C)c5ccc(Br)cc5C45CC(C2C5O)[N+]3(CC(O)CN2CCCCC2)C1O (stereo not drawn) [Example 22, Nb-(2-hydroxy-3-(1-piperidinyl)propyl)-10-bromoisoajmalinium hydrogen tartrate] | +154% | +110% | +121% | – | 550 | – | 8.1 | 3.4 | 72 µmol/kg | 168
CCC1C2CC3C4N(C)c5ccc(Br)cc5C45CC(C2C5O)[N+]3(CCN2CCOCC2)C1O (stereo not drawn) [Example 10, Nb-[2-(4-morpholinyl)ethyl]-10-bromoisoajmalinium-chloride] | +67% | +43% | +69% | 45 | 470 | 12.9 | 0.2 | 2.1 | 22 µmol/kg | –
CCCC[N+]12C(O)C(CC)C3CC1C1N(C)c4ccc(Br)cc4C14CC2C3C4O (stereo not drawn) [Example 14.b, Nb-butyl-10-bromoisoajmalinium hydrogen tartrate] | +80% | +88% | +87% | 76 | 198 | 0.7 | 2 | 1.5 | 20 µmol/kg | –
CCC1C2CC3C4N(C)c5ccc(Br)cc5C45CC(C2C5O)[N+]3(C)C1O (stereo not drawn) [Example 11.b, Nb-methyl-10-bromoisoajmalinium hydrogen tartrate] | +85% | +52% | +73% | 190 | 1290 | 1.3 | 7.2 | 9 | 88 µmol/kg | –
CCC1C2CC3C4N(C)c5ccc(Br)cc5C45CC(C2C5O)[N+]3(CCN2CCCCC2)C1O (stereo not drawn) [Example 9.b, Nb-(2-(1-piperidinyl)ethyl)-10-bromoisoajmalinium bishydrogen tartrate] | +151% | +95% | +52% | 60 | 148 | 0.7 | 2.3 | 1.4 | 31 µmol/kg | –
CCCCCCCCCC[N+]12C(O)C(CC)C3CC1C1N(C)c4ccc(Br)cc4C14CC2C3C4O (stereo not drawn) [Example 15.b, Nb-decyl-10-bromoisoajmalinium hydrogen tartrate] | n.s. | n.s. | n.s. | 72 | > 1440 | 4.6 | 24.8 | 113 | 287 µmol/kg | –
CCC[N+]12C(O)C(CC)C3CC1C1N(C)c4ccc(Br)cc4C14CC2C3C4O (stereo not drawn) [Example 13.b, Nb-propyl-10-bromoisoajmalinium hydrogen tartrate] | +110% | +110% | +130% | – | 437 | 2.4 | 0.6 | 1.5 | 42 µmol/kg | –
CCC1C2CC3C4N(C)c5ccc(Br)cc5C45CC(C2C5O)[N+]3(CC(O)c2ccccc2)C1O (stereo not drawn) [Example 21, Nb-(2-hydroxy-2-phenylethyl)-10-bromoisoajmalinium hydrogen tartrate] | +89% | +72% | +92% | 250 | 2180 | 0.8 | 3.8 | 3.2 | – | –
CCC1C2CC3C4N(C)c5ccc(Br)cc5C45CC(C2C5O)[N+]3(CCN2CCCC2)C1O (stereo not drawn) [Example 8.b, Nb-(2-(1-pyrrolidinyl)ethyl)-10-bromoisoajmalinium bishydrogen tartrate] | +212% | +129% | > +149% | 115 | 394 | 2.3 | 0.9 | 2 | 31 µmol/kg | –
CCC1C2CC3C4N(C)c5ccc(Br)cc5C45CC(C2C5O)[N+]3(Cc2ccccc2)C1O (stereo not drawn) [Example 16.b, Nb-benzyl-10-bromoisoajmalinium hydrogen tartrate] | +36% | +31% | +30% | 483 | 2280 | 6.1 | 2.7 | 16.6 | (*) | –
CCC1C2CC3C4N(C)c5ccc(Br)cc5C45CC(C2C5O)[N+]3(CC)C1O (stereo not drawn) [Example 12.b, Nb-ethyl-10-bromo-isoajmalinium hydrogen tartrate] | +52% | +39% | +55% | 122 | 1430 | 0.9 | 1.5 | 1.4 | 21 µmol/kg | –
CCC[N+]12C(O)C(CC)C3CC1C1N(C)c4ccccc4C14CC2C3C4O (stereo not drawn) [Neo-Gilurytmal, Nb -propyl ajmalinium hydrogen tartrate, reference compound] | +86% | +50% | +80% | – | – | – | 1.8 | 0.26 | 12 µmol/kg | –
